Test results published in paper PMC8131842, “Therapeutic Potential of Vasoactive Intestinal Peptide and its Derivative Stearyl-Norleucine-VIP in Inflammation-Induced Osteolysis” (Frontiers in Pharmacology, 2021).

Columns and labels:
[1] = system: Primary murine preosteoclasts; test: Osteoclastogenesis assay with conditioned medium from TiP-exposed macrophages (TRAP staining); type: cell-based, mouse; settings: 10^-6 M, conditioned medium of TiP-exposed macrophages
Description: Osteoclastogenesis assay. Preosteoclasts, prepared like the BMDMs, were plated in 96-well plates (7,000 cells per well, for TRAP staining, see below) or in 6-well plates (200,000 cells per well, for RNA) in standard medium supplemented with 20 ng/ml M-CSF and 50 ng/ml RANKL (R&D Systems, Minneapolis, MN, United States). After 48 h, the medium was replaced by the conditioned medium of BMDM, supplemented with RANKL and M-CSF. Where indicated, 10^−6 M SNV or VIP were added. […], cells were stained using a TRAP kit (Sigma-Aldrich, St. Louis, MO, United States), and multinucleated (>3 nuclei) TRAP-positive cells were defined as osteoclasts. Images were acquired at an original magnification of ×4 (Evos FLC, Life Technologies, MS, United States). The number of osteoclasts and the total osteoclast area were measured using ImageJ software (National Institutes of Health, Bethesda, MD, United States).
FIGURE 4 VIP and SNV alleviate the osteoclastogenic effect of TiP-induced inflammation. (A) Primary BMDM were exposed to TiP and RNA was collected after 24 h. mRNA expression are presented as Mean±SD fold change versus Control. * p<0.05 vs. Control. (B-D) Primary murine preosteoclasts were cultured in 20 ng/ml M-CSF and 50 ng/ml RANKL for 48 h. Conditioned medium from macrophages (Control) and macrophages exposed to Ti particles (Ti, as in A) was then added together with 10^-6M of VIP or SNV (or saline) for 48 h before TRAP staining. Data are Mean±SD for osteoclast % surface area (B) and number per well (C). (D) Representative images all acquired at a 4x original magnification. The scale bar for all images is in the upper left panel. n=8, #p<0.05 vs. Control; *p<0.05 vs. Ti, ANOVA. (E) Primary murine macrophages/preosteoclasts were cultured in 20 ng/ml M-CSF and Ti particles, 10^-6M of VIP or SNV, or saline only. MTT viability assay was performed after 1, 3 and 5 days and presented as optical density values. N=5, no statistical differences were found between the treatment groups. Data are Mean±SD in arbitrary OD units.

albino female rabbits = test: Study 002 acute dermal toxicity in rabbits; type: in vivo, rabbit; settings: single dermal application, 7 mg/site (1000X)
Description: Toxicology. We performed toxicology studies for SNV that consisted of acute subcutaneous, intravenous and oral toxicity in rats, acute dermal toxicity in rabbits, skin sensitization using adjuvant and patch test in guinea pigs, and single and repeated (for 13 weeks) dose toxicity studies in rats. The latter was a 90-days repeated dose toxicity study, consisting of SNV once a day at three different doses to the penis and vagina of male and female rats, respectively. The compound was tested for the treatment of erectile dysfunction. The active dose (7 µg SNV) was chosen as the lowest dose for the study. The highest dosage group in the repeated dose toxicity study received 3,500 µg ([Gozes et al., 1994]). For study 001 (parts 1 through 3), the 1× dose consisted of 0.5 mg SNV dissolved in 7.1 ml vehicle (3.55 ml 10% Sefsol [glycerin monocaprylate] + 3.55 ml isopropanol) and 100µl/animal were administered; the 1000X dose consisted of 91 mg SNV dissolved in 1.3 ml vehicle (0.65 ml 10% Sefsol +0.65 ml isopropanol) and 100µl/animal were administered. For studies 002 through 004, the indicated doses of SNV (Table 1) were dissolved in 0.25 ml 10% Sefsol +0.25 ml 40% isopropanol (vehicle). The methodology for each of the toxicology studies is detailed in Table 1.

[2] = system: histidine auxotrophs of Salmonella typhimurium; test: Study 005 mutagenic potential (Ames test); type: cell-based
Description: Although, the studies were not carried out under Good Laboratory Practices (GLP) stipulations, SNV was synthesized under GLP conditions, and all the work was carried out at Tel Aviv University under meticulous conditions using professional staff and established methods (in a designated air-conditioned, clean room and specific luminary flow hood), which all strengthen the trustworthiness of the study results. Ames tests were carried out by Life Science Research Israel Ltd. Ness Ziona, Israel.

[3] = intravenously administered, 30 min after injection; ref Gozes et al., 1994; cited from earlier work
Description: VIP and its derivative SNV have been previously studied for immunomodulation properties ([Abad et al., 2006]; [Goursaud et al., 2015]). Here we show the effect of each peptide on the cytokine profile of macrophages in response to LPS and in the osteolytic response to Ti particles using in vitro and in vivo mouse models. […] Furthermore, loading a single dose of SNV into a degradable memb ...

[4] = 20 ng/ml M-CSF + 50 ng/ml RANKL, TRAP staining, n=8, vs Ti

Substance: Stearyl–HSDAVFTDNYTRLRKQ-Nle-AVKKYLNSILN-NH2 [SNV, Stearyl-norleucine-VIP, lipophilic VIP derivative with N-terminal stearic acid and norleucine in place of methionine at position 17]
- Inhibitory effect on osteoclasts compared with VIP [1]: stronger inhibitory effect on osteoclasts than VIP
- Osteoclast area [1, 4]: attenuated
- Osteoclast number [1, 4]: attenuated
- Dermal irritation, conclusion (albino female rabbits): Under the conditions of this study, single dermal application of the vehicle did not cause irritation. The 1000X dose transient effect was barely perceptible
- Mortality (albino female rabbits; N = 4): None
- Rabbits with slight barely perceptible erythema (albino female rabbits; N = 4, disappeared within 72 h following application): 50%
- Revertant colony numbers over control ([2]; 0.3 to 312.5 µg/plate): No significant increases in revertant colony numbers over control with test material at doses ranging from 0.3 to 312.5 µg/plate
- Mutagenic activity, conclusion ([2]; 0.3–312.5 µg/standard bacterial plate): Under the conditions of this study, the test material, SNV was devoid of mutagenic activity
- Remaining intact SNV [3]: 10%
